What was measured:
Format in all cases: in vivo, mouse
[1] = test system: rheumatoid arthritis model, DBA-1J Mice [류마티스 관절염 모델]; experiment: Histopathological examination in rheumatoid arthritis animal model, dose regimen study, Experiment 6; details: Day 14
[2] = Hematological examination, Experiment 6-4; details: for %BASO / %EOS / %LUC / %LYM / %MONO / %NEUT / %RETIC / HCT / HDW / HGB / MCH / MCV / MPV / PLT / RBC / RDW / WBC: Day 14
[3] = test system: TNF-α; experiment: Plasma TNF-α (ELISA), Experiment 6-5; details: for Plasma TNF-α: Day 14
[4] = G3: MTX 2 mpk qd PO, G12: Py 15 mpk qd PO

SMILES: CCc1nc(N)nc(N)c1-c1ccc(Cl)cc1 [피리메타민, Pyrimethamine]
- Cartilage damage ([1]; G11: Py 5 mg/kg QD PO): 1.7±0.8
- Histopathological examination, total ([1]; G11: Py 5 mg/kg QD PO): 6.7±1.5
- Synovium proliferation ([1]; G11: Py 5 mg/kg QD PO): 3.0±0.0
- Bone destruction ([1]; G12: Py 15 mg/kg/day QD PO): 2.2±0.4
- Cartilage damage ([1]; G12: Py 15 mg/kg/day QD PO): 1.5±0.5
- Histopathological examination, total ([1]; G12: Py 15 mg/kg/day QD PO): 6.3±0.8
- Synovium proliferation ([1]; G12: Py 15 mg/kg/day QD PO): 2.7±0.5
- %BASO [2, 4]: 0.4±0.3%
- %EOS [2, 4]: 1.5±0.4%
- %LUC [2, 4]: 1.5±1%
- %LYM [2, 4]: 40.4±4.1%
- %MONO [2, 4]: 4.2±0.8%
- %NEUT [2, 4]: 52±5.2%
- %RETIC [2, 4]: 3.85±0.63%
- HCT [2, 4]: 46±2.5%
- HDW [2, 4]: 2.15 ± 0.13 g/dL
- HGB [2, 4]: 12.6 ± 0.7 g/dL
- MCH [2, 4]: 13.1 ± 0.4 pg
- MCV [2, 4]: 47.8 ± 1.5 fL
- MPV [2, 4]: 6.3 ± 0.1 fL
- PLT [2, 4]: 1211±176 10^3 cell/μL
- RBC [2, 4]: 9.63±0.75 10^6 cell/μL
- RDW [2, 4]: 24.2±2.2%
- WBC [2, 4]: 3.58±1.19 10^3 cell/μL
- %BASO ([2]; G7: Py 1 mpk qd IP): 0.8±0.1%
- %EOS ([2]; G7: Py 1 mpk qd IP): 1.2±0.2%
- %LUC ([2]; G7: Py 1 mpk qd IP): 2.8±1.3%
- %LYM ([2]; G7: Py 1 mpk qd IP): 49.2±3.5%
- %MONO ([2]; G7: Py 1 mpk qd IP): 6.1±2.1%
- %NEUT ([2]; G7: Py 1 mpk qd IP): 40±3.5%
- %RETIC ([2]; G7: Py 1 mpk qd IP): 5.1±0.9%
- HCT ([2]; G7: Py 1 mpk qd IP): 43.6±3.2%
- HDW ([2]; G7: Py 1 mpk qd IP): 2.33 ± 0.15 g/dL
- HGB ([2]; G7: Py 1 mpk qd IP): 11.9 ± 0.7 g/dL
- MCH ([2]; G7: Py 1 mpk qd IP): 12.3 ± 0.2 pg
- MCV ([2]; G7: Py 1 mpk qd IP): 45.1 ± 0.8 fL
- MPV ([2]; G7: Py 1 mpk qd IP): 7.5 ± 0.6 fL
- PLT ([2]; G7: Py 1 mpk qd IP): 403±182 10^3 cell/μL
- RBC ([2]; G7: Py 1 mpk qd IP): 9.68±0.63 10^6 cell/μL
- RDW ([2]; G7: Py 1 mpk qd IP): 22±2.8%
- WBC ([2]; G7: Py 1 mpk qd IP): 5.4±2.01 10^3 cell/μL
- %BASO ([2]; G8: Py 1 mpk qd PO): 0.6±0.2%
- %EOS ([2]; G8: Py 1 mpk qd PO): 1.6±0.5%
- %LUC ([2]; G8: Py 1 mpk qd PO): 2±0.8%
- %LYM ([2]; G8: Py 1 mpk qd PO): 45±8.1%
- %MONO ([2]; G8: Py 1 mpk qd PO): 4.7±1.2%
- %NEUT ([2]; G8: Py 1 mpk qd PO): 46.3±9.0%
- %RETIC ([2]; G8: Py 1 mpk qd PO): 6.74±3.63%
- HCT ([2]; G8: Py 1 mpk qd PO): 44.8±2.5%
- HDW ([2]; G8: Py 1 mpk qd PO): 2.31 ± 0.25 g/dL
- HGB ([2]; G8: Py 1 mpk qd PO): 12.3 ± 0.6 g/dL
- MCH ([2]; G8: Py 1 mpk qd PO): 12.6 ± 0.4 pg
- MCV ([2]; G8: Py 1 mpk qd PO): 45.6 ± 0.9 fL
- MPV ([2]; G8: Py 1 mpk qd PO): 6.3 ± 0.1 fL
- PLT ([2]; G8: Py 1 mpk qd PO): 1380±72 10^3 cell/μL
- RBC ([2]; G8: Py 1 mpk qd PO): 9.82±0.67 10^6 cell/μL
- RDW ([2]; G8: Py 1 mpk qd PO): 21.5±3%
- WBC ([2]; G8: Py 1 mpk qd PO): 2.67±0.58 10^3 cell/μL
- Hematotoxicity (in words) ([2]; G7, intraperitoneal injection): 혈소판 수치가 감소하는 독성이 나타났다
- Hematotoxicity (in words) ([2]; oral groups G8-G12): 혈액 독성이 나타나지 않음
- Plasma TNF-α ([3]; G7: Py 1 mg/kg/day QD IP): 879.4 pg/mL
- Plasma TNF-α ([3]; G8: Py 1 mg/kg/day BID PO): 867.2 pg/mL
- Plasma TNF-α ([3]; G9: Py 1 mg/kg/day QD PO): 863.5 pg/mL
- Plasma TNF-α ([3]; G10: Py 3 mg/kg/day BID PO): 818.8 pg/mL
- Plasma TNF-α ([3]; G11: Py 5 mg/kg QD PO): 763.7 pg/mL
- Plasma TNF-α ([3]; G12: Py 15 mg/kg/day QD PO): 728.0 pg/mL
- Plasma TNF-α (in words) ([3]; pyrimethamine oral groups): 농도 의존적으로 혈장 TNF-α 수치가 감소

Reference: patent KR20210056931A, “피리메타민을 유효성분으로 포함하는 면역 관련 질환의 치료 또는 예방용 약학 조성물” (priority 2019, dated 2021)
